Experiments:
[1] = tested on: 46I/47V/50V (VX478) strain; assay: Transient DNA transfection assay, strain 46I/47V/50V (VX478); format: cell-based, HIV-1; conditions: 1 nM
Excerpt: (§1) By way of PCR-supported mutagenesis and cloning, HIV-1 protease mutants are generated that are based on the infectious clone pNL4-3 (freely available via the "NIH AIDS reference and reagent program", the original reference is A. Adachi et al. J. Virol (1986) 59, 284-91--but it can, of course, be any other HIV clone, or even clinical material, provided that comparability is ensured). […] The cloned fragments are, for example, only 500 base pairs in length, all of the remainder being unchanged. By using mutations in always the same clone, direct comparability is ensured, which would rot be the case in a direct comparison of clinical samples or of different HIV clones.
(§2) That system is used as a transient DNA transfection system for tests:
(§3) Instead of the strains mentioned, there may be used any human T4-positive cells, such as the HeLa T4 cells, deposited under that name by Richard Axel and Paul Maddon in "NIH AIDS reference and reagent program" and obtainable via that source.

[2] = tested on: resistant variant (45I,76F strain)
Excerpt: as §1, §2, §3

## COC(=O)N[C@H](C(=O)N[C@@H](Cc1ccccc1)[C@@H](O)CN(Cc1ccc(-c2ccccn2)cc1)NC(=O)[C@@H](NC(=O)OC)C(C)(C)C)C(C)(C)C [Example 46, 1-[4-(Pyridin-2-yl)-phenyl]-4(S)-hydroxy-5(S)-2,5-bis[N-(N-methoxycarbonyl-(L)-tert-leucyl)amino]-6-phenyl-2-azahexane]
[1]
  activity against strain 46I/47V/50V (VX478) compared with saquinavir, ritonavir and indinavir: more potent (not quantified) than that of saquinavir, ritonavir and indinavir
[2]
  activity against a resistant variant (45I,76F strain) compared with saquinavir, indinavir, ritonavir: comparable with saquinavir and better than that of indinavir (Merck & Co., Inc., see below) or ritonavir
